Measured values as given in patent US20220296566A1, “COMBINATION PRODUCT CONTAINING LIMONOID COMPOUND AND ALPHA-GLUCOSIDASE INHIBITOR” (ZHEJIANG YANGSHENGTANG INSTITUTE OF NATURAL MEDICATION CO., …, priority 2019, published 2022).

Experiments:
db/db mice [1] = test: Blood glucose in mouse type II diabetes model, db/db mice (Example 2); type: in vivo; conditions: single agent 0.04 g/kg per day by gavage, two weeks, 1 h after last administration, mean ± SD
Text: Effects of limonoid compound, acarbose or combination thereof on blood glucose and leptin in mouse type II diabetes model
In the present example, db/db mice (line name BKS.Cg-Dock7^m+/+Lepr^db/Nju) were used to perform hypoglycemic efficacy evaluation test of animals (blood glucose level and leptin). The limonoid compound was selected from obacunone, isoobacunoic acid and obacunone glycoside, and acarbose single administration group, obacunone single administration group, isoobacunoic acid single administration group, obacunone glycoside single administered group, and respective combination thereof with acarbose administration groups were set.
(§1) Conditions for experimental feeding: as type II diabetes model mice, 6-week-old SPF-grade db/db mice were purchased from the Nanjing Model Biology Institute, and subjected to experimental feeding after 7 days of preliminary feeding. It should be noted that the conditions for raising the mice were as follows: the temperature was 23±1° C., the humidity was 55±10%, the lights were turned on between 7 am and 7 pm (the lights were turned off at other time), and the mice were allowed to freely take in water and feed. […]

db/db mice [2] = test: Serum insulin by Elisa in db/db mice (Example 4); type: in vivo; conditions: single agent 0.2 g/kg per day by gavage, two weeks, mean ± SD
Text: Effects of limonoid compound, acarbose or combination thereof on blood glucose and insulin in mouse type II diabetes model
In the present embodiment, the limonoid compound was selected from nomilin, deacetylnomilin, nomilin acid, deacetylnomilin acid glycoside, and acarbose single administration group, nomilin single administration group, deacetylnomilin single administration group, nomilin acid single administered group, deacetylnomilin acid glycoside single administration group, and respective combination thereof with acarbose administration groups were set.
as §1, with “feed. The experimental feed was mouse growth-stable feed (GB M2118), and the daily feeding and management of the animals were under the responsibility of the animal security department, which provided the animals with sufficient diet and fresh drinking water daily.” for “feed.”

C[C@H]1O[C@H](O[C@H]2[C@H](O)[C@@H](O)[C@@H](O[C@H]3[C@H](O)[C@@H](O)C(O)O[C@@H]3CO)O[C@@H]2CO)[C@H](O)[C@@H](O)[C@@H]1N[C@H]1C=C(CO)[C@@H](O)[C@H](O)[C@H]1O (some centres unmarked) [Acarbose, acarbose] gave a Blood glucose value (db/db mice [1]) of 16.9 ± 4.0 mmol/L and an Insulin (db/db mice [2]) of 8.45 ± 2.21 pg/mL.
